What was measured:
[1] = test system: wild oat; experiment: Test Example 5: herbicidal effect by foliage application, plastic box (Table 20, symbol I); format: in vivo, wild oat (Avena fatua); conditions: foliage application, 320 g/ha, evaluated three weeks after application
In short: (§1)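 Plants sown in sterilized diluvial soil and grown 14 days in a greenhouse at 25° C to 30° C, then sprayed on the foliage with the compound's emulsion diluted in water to a predetermined herbicide amount. Injury to weeds and crops scored three weeks after application on a visual rating scale.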

[2] = test system: Italian ryegrass; experiment: Test Example 4: herbicidal effect by soil treatment (Table 19, symbol K); format: in vivo, Italian ryegrass (Lolium multiflorum); conditions: amount of applied herbicide 320 g/ha
In short: (§2)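 Seeds were sown in sterilized diluvial soil and covered with about 1.5 cm of soil. An emulsion formulation diluted with water to a predetermined herbicide amount was sprayed evenly onto the soil surface. Plants grew in a greenhouse at 25° C. to 30° C., and the effect was scored three weeks after application using criteria from an earlier test.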

[3] = test system: Japanese bulrush; experiment: Test Example 1: herbicidal activity, application before weed generation under submerged conditions (Table 16, symbol B); format: in vivo, Japanese bulrush (Schoenoplectus juncoides); conditions: 320 g/ha applied herbicide
In short: (§3)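 Alluvial soil was flooded to 4 cm depth, weed seeds were sown mixed and 2.5-leaf rice seedlings were transplanted. On sowing day, the compound's emulsion, diluted in water to a set dose, was applied to the water surface. Plants grew at 25–30 °C and were scored 0–5 after three weeks.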

[4] = test system: Italian ryegrass; experiment: Test Example 5: herbicidal effect by foliage application, plastic box (Table 20, symbol K); format: in vivo, Italian ryegrass (Lolium multiflorum); conditions: foliage application, 320 g/ha, evaluated three weeks after application
In short: as §1

[5] = test system: southern crabgrass; experiment: Test Example 4: herbicidal effect by soil treatment (Table 19, symbol F); format: in vivo, southern crabgrass (Digitaria ciliaris); conditions: amount of applied herbicide 320 g/ha
In short: as §2

[6] = test system: persian speedwell; experiment: Test Example 4: herbicidal effect by soil treatment (Table 19, symbol R); format: in vivo, Persian speedwell (Veronica persica); conditions: amount of applied herbicide 320 g/ha
In short: as §2

[7] = test system: oval-leafed pondweed; experiment: Test Example 1: herbicidal activity, application before weed generation under submerged conditions (Table 16, symbol C); format: in vivo, oval-leafed pondweed (Monochoria vaginalis); conditions: 320 g/ha applied herbicide
In short: as §3

[8] = test system: blackgrass; experiment: Test Example 4: herbicidal effect by soil treatment (Table 19, symbol J); format: in vivo, blackgrass (Alopecurus myosuroides); conditions: amount of applied herbicide 320 g/ha
In short: as §2

[9] = test system: blackgrass; experiment: Test Example 5: herbicidal effect by foliage application, plastic box (Table 20, symbol J); format: in vivo, blackgrass (Alopecurus myosuroides); conditions: foliage application, 320 g/ha, evaluated three weeks after application
In short: as §1

[10] = test system: late watergrass; experiment: Test Example 1: herbicidal activity, application before weed generation under submerged conditions (Table 16, symbol A); format: in vivo, late watergrass (Echinochloa oryzicola); conditions: 320 g/ha applied herbicide
In short: as §3

[11] = test system: chickweed; experiment: Test Example 4: herbicidal effect by soil treatment (Table 19, symbol P); format: in vivo, common chickweed (Stellaria media); conditions: amount of applied herbicide 320 g/ha
In short: as §2

[12] = test system: rice flat sedge; experiment: Test Example 3: herbicidal effect by foliage application, Wagner pot (Table 18, symbol E); format: in vivo, rice flat sedge (Cyperus iria); conditions: amount of applied herbicide 320 g/ha
In short: (§4)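 Plants were sown in alluvial soil held under 0.1–0.5 cm standing water and grown 14 days in a greenhouse at 25–30 °C. An emulsifiable formulation, water-diluted to the set dose, was then sprayed onto the foliage, and effects were scored three weeks later using previously defined criteria.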

[13] = test system: southern crabgrass; experiment: Test Example 5: herbicidal effect by foliage application, plastic box (Table 20, symbol F); format: in vivo, southern crabgrass (Digitaria ciliaris); conditions: foliage application, 320 g/ha, evaluated three weeks after application
In short: as §1

[14] = test system: chickweed; experiment: Test Example 5: herbicidal effect by foliage application, plastic box (Table 20, symbol P); format: in vivo, common chickweed (Stellaria media); conditions: foliage application, 320 g/ha, evaluated three weeks after application
In short: as §1

[15] = test system: velvetleaf; experiment: Test Example 4: herbicidal effect by soil treatment (Table 19, symbol M); format: in vivo, velvetleaf (Abutilon theophrasti); conditions: amount of applied herbicide 320 g/ha
In short: as §2

[16] = test system: barnyard grass; experiment: Test Example 3: herbicidal effect by foliage application, Wagner pot (Table 18, symbol H); format: in vivo, barnyard grass (Echinochloa crus-galli); conditions: amount of applied herbicide 320 g/ha
In short: as §4

[17] = test system: lambsquarters; experiment: Test Example 5: herbicidal effect by foliage application, plastic box (Table 20, symbol O); format: in vivo, lambsquarters (Chenopodium album); conditions: foliage application, 320 g/ha, evaluated three weeks after application
In short: as §1

[18] = test system: barnyard grass; experiment: Test Example 5: herbicidal effect by foliage application, plastic box (Table 20, symbol H); format: in vivo, barnyard grass (Echinochloa crus-galli); conditions: foliage application, 320 g/ha, evaluated three weeks after application
In short: as §1

[19] = test system: redroot pigweed; experiment: Test Example 5: herbicidal effect by foliage application, plastic box (Table 20, symbol N); format: in vivo, redroot pigweed (Amaranthus retroflexus); conditions: foliage application, 320 g/ha, evaluated three weeks after application
In short: as §1

[20] = test system: windgrass; experiment: Test Example 4: herbicidal effect by soil treatment (Table 19, symbol L); format: in vivo, windgrass (Apera spica-venti); conditions: amount of applied herbicide 320 g/ha
In short: as §2

[21] = test system: velvetleaf; experiment: Test Example 5: herbicidal effect by foliage application, plastic box (Table 20, symbol M); format: in vivo, velvetleaf (Abutilon theophrasti); conditions: foliage application, 320 g/ha, evaluated three weeks after application
In short: as §1

[22] = test system: redroot pigweed; experiment: Test Example 4: herbicidal effect by soil treatment (Table 19, symbol N); format: in vivo, redroot pigweed (Amaranthus retroflexus); conditions: amount of applied herbicide 320 g/ha
In short: as §2

[23] = test system: lambsquarters; experiment: Test Example 4: herbicidal effect by soil treatment (Table 19, symbol O); format: in vivo, lambsquarters (Chenopodium album); conditions: amount of applied herbicide 320 g/ha
In short: as §2

[24] = test system: green foxtail; experiment: Test Example 4: herbicidal effect by soil treatment (Table 19, symbol G); format: in vivo, green foxtail (Setaria viridis); conditions: amount of applied herbicide 320 g/ha
In short: as §2

[25] = test system: barnyard grass; experiment: Test Example 4: herbicidal effect by soil treatment (Table 19, symbol H); format: in vivo, barnyard grass (Echinochloa crus-galli); conditions: amount of applied herbicide 320 g/ha
In short: as §2

[26] = test system: windgrass; experiment: Test Example 5: herbicidal effect by foliage application, plastic box (Table 20, symbol L); format: in vivo, windgrass (Apera spica-venti); conditions: foliage application, 320 g/ha, evaluated three weeks after application
In short: as §1

[27] = test system: green foxtail; experiment: Test Example 5: herbicidal effect by foliage application, plastic box (Table 20, symbol G); format: in vivo, green foxtail (Setaria viridis); conditions: foliage application, 320 g/ha, evaluated three weeks after application
In short: as §1

[28] = test system: wild oat; experiment: Test Example 4: herbicidal effect by soil treatment (Table 19, symbol I); format: in vivo, wild oat (Avena fatua); conditions: amount of applied herbicide 320 g/ha
In short: as §2

[29] = test system: persian speedwell; experiment: Test Example 5: herbicidal effect by foliage application, plastic box (Table 20, symbol R); format: in vivo, Persian speedwell (Veronica persica); conditions: foliage application, 320 g/ha, evaluated three weeks after application
In short: as §1

[30] = test system: Chinese sprangletop; experiment: Test Example 3: herbicidal effect by foliage application, Wagner pot (Table 18, symbol D); format: in vivo, chinese sprangletop (Leptochloa chinensis); conditions: amount of applied herbicide 320 g/ha
In short: as §4

CCOc1cccc(-c2sc3ccc(F)cc3c2-c2c(O)c(C)nn(C)c2=O)c1 [2-211]
herbicidal effect on I: wild oat (criteria 0-5) [1]: 0 (Herbicidal rate of 5% or less (almost no effect)) | K: Italian ryegrass, herbicidal effect rating [2]: 5 (Herbicidal rate of 90% or more (almost completely withered)) | Herbicidal effect on B: Japanese bulrush (grade 0-5) [3]: 0 (Herbicidal rate of 5% or less (almost no effect)) | herbicidal effect on K: Italian ryegrass (criteria 0-5) [4]: 5 (Herbicidal rate of 90% or more (almost completely withered)) | F: southern crabgrass, herbicidal effect rating [5]: 5 (Herbicidal rate of 90% or more (almost completely withered)) | R: persian speedwell, herbicidal effect rating [6]: 5 (Herbicidal rate of 90% or more (almost completely withered)) | Herbicidal effect on C: oval-leafed pondweed (grade 0-5) [7]: 0 (Herbicidal rate of 5% or less (almost no effect)) | J: blackgrass, herbicidal effect rating [8]: 4 (Herbicidal rate of 70% or more and less than 90%) | herbicidal effect on J: blackgrass (criteria 0-5) [9]: 4 (Herbicidal rate of 70% or more and less than 90%) | Herbicidal effect on A: late watergrass (grade 0-5) [10]: 2 (Herbicidal rate of 20% or more and less than 40%) | P: chickweed, herbicidal effect rating [11]: 3 (Herbicidal rate of 40% or more and less than 70%) | herbicidal effect on E: rice flat sedge [12]: 4 (Herbicidal rate of 70% or more and less than 90%) | herbicidal effect on F: southern crabgrass (criteria 0-5) [13]: 5 (Herbicidal rate of 90% or more (almost completely withered)) | herbicidal effect on P: chickweed (criteria 0-5) [14]: 5 (Herbicidal rate of 90% or more (almost completely withered)) | M: velvetleaf, herbicidal effect rating [15]: 3 (Herbicidal rate of 40% or more and less than 70%) | herbicidal effect on H: barnyard grass [16]: 5 (Herbicidal rate of 90% or more (almost completely withered)) | herbicidal effect on O: lambsquarters (criteria 0-5) [17]: 5 (Herbicidal rate of 90% or more (almost completely withered)) | herbicidal effect on H: barnyard grass (criteria 0-5) [18]: 5 (Herbicidal rate of 90% or more (almost completely withered)) | herbicidal effect on N: redroot pigweed (criteria 0-5) [19]: 5 (Herbicidal rate of 90% or more (almost completely withered)) | L: windgrass, herbicidal effect rating [20]: 3 (Herbicidal rate of 40% or more and less than 70%) | herbicidal effect on M: velvetleaf (criteria 0-5) [21]: 5 (Herbicidal rate of 90% or more (almost completely withered)) | N: redroot pigweed, herbicidal effect rating [22]: 5 (Herbicidal rate of 90% or more (almost completely withered)) | O: lambsquarters, herbicidal effect rating [23]: 2 (Herbicidal rate of 20% or more and less than 40%) | G: green foxtail, herbicidal effect rating [24]: 4 (Herbicidal rate of 70% or more and less than 90%) | H: barnyard grass, herbicidal effect rating [25]: 5 (Herbicidal rate of 90% or more (almost completely withered)) | herbicidal effect on L: windgrass (criteria 0-5) [26]: 4 (Herbicidal rate of 70% or more and less than 90%) | herbicidal effect on G: green foxtail (criteria 0-5) [27]: 5 (Herbicidal rate of 90% or more (almost completely withered)) | I: wild oat, herbicidal effect rating [28]: 0 (Herbicidal rate of 5% or less (almost no effect)) | herbicidal effect on R: persian speedwell (criteria 0-5) [29]: 5 (Herbicidal rate of 90% or more (almost completely withered)) | herbicidal effect on D: Chinese sprangletop [30]: 5 (Herbicidal rate of 90% or more (almost completely withered))
